Test system: HCT116 MTAP-deleted cells
Assay: Cell viability assay (CellTiter-Glo, 7 days), HCT116 MTAP-deleted
Conditions: Homo sapiens, HCT-116, 168 h
Procedure: Control compounds were analyzed in parallel each time for quality control.
In Brief, on Day −1, a serial dilution of stock compounds in DMSO was performed using BioMek liquid handlers and dispensed using Echo acoustic dispenser into 384 well plates. Both tool compounds and sample compounds were spotted in the same plate for a dose response of PRMT5 inhibitors. Compound plates were stored as frozen until the cells were ready for seeding.
On Day 0, 100 HCT WT or HCT116 MTAP-deleted cells were seeded in compound-containing 384 well plates (50 μl per well) in RPMI 1640 media supplemented with 10% heat inactivated fetal bovine serum, Glutamax and penicillin streptomycin using EL460 liquid dispenser 5 μl cassette (BioTek, part no. 7170011). After equilibrating the plate in room temperature, the cells were incubated for 7 days inside the sealed incubator set at 37 °C with 90% humidity and 5% CO2.
On Day 7, the viability of cells was measured using a CTG assay kit (CellTitre-Glo; Promega cat no. G7573). Shortly, 40 μl per well of luminescent cell viability assay reagent were dispensed using EL460 liquid dispenser 5 μl cassette. CTG luminescence signal was measured using an EnVision plate reader (PerkinElmer) in accordance with manufacturer's instruction. The CC50 values for each compound after 7 days of treatment were calculated using 4 parameter non-linear logistical curve fit.

SMILES | CC50
CC(=O)N(C)N(Cc1ccc(-c2cnn(C(F)(F)F)c2)nc1F)C(=O)c1ccc2nc(N)c3cnn(C)c3c2c1 [Example 347, N′-acetyl-4-amino-N-((2-fluoro-6-(1-(trifluoromethyl)-1H-pyrazol-4-yl)pyridin-3-yl)methyl)-N′,1-dimethyl-1H-pyrazolo[4,3-c]quinoline-8-carbohydrazide] | < 100 nM
CC(=O)N(C)N(Cc1ccc(-c2cnn(C(F)F)c2)nc1F)C(=O)c1ccc2nc(N)c3cnn(C)c3c2c1 [Example 348, N′-acetyl-4-amino-N-((6-(1-(difluoromethyl)-1H-pyrazol-4-yl)-2-fluoropyridin-3-yl)methyl)-N′,1-dimethyl-1H-pyrazolo[4,3-c]quinoline-8-carbohydrazide] | < 100 nM
CN(C(=O)C1CC1)N(Cc1ccc(-c2cnn(C(F)F)c2)cn1)C(=O)c1ccc2nc(N)c3cnn(C)c3c2c1 [Example 353, 4-amino-N′-(cyclopropanecarbonyl)-N-((5-(1-(difluoromethyl)-1H-pyrazol-4-yl)pyridin-2-yl)methyl)-N′,1-dimethyl-1H-pyrazolo[4,3-c]quinoline-8-carbohydrazide] | < 100 nM
CN(C(=O)C1CC1)N(Cc1ccc(Br)cn1)C(=O)c1ccc2nc(N)c3cnn(C)c3c2c1 [Example 354, 4-amino-N-((5-bromopyridin-2-yl)methyl)-N′-(cyclopropanecarbonyl)-N′,1-dimethyl-1H-pyrazolo[4,3-c]quinoline-8-carbohydrazide] | < 100 nM
CN(C(=O)C1CC1)N(Cc1ccc(-c2cncs2)cn1)C(=O)c1ccc2nc(N)c3cnn(C)c3c2c1 [Example 355, 4-amino-N′-(cyclopropanecarbonyl)-N′,1-dimethyl-N-((5-(thiazol-5-yl)pyridin-2-yl)methyl)-1H-pyrazolo[4,3-c]quinoline-8-carbohydrazide] | < 100 nM
CN(C(=O)C1CC1)N(Cc1ccc(-c2cnn(C)c2)cn1)C(=O)c1ccc2nc(N)c3cnn(C)c3c2c1 [Example 356, 4-amino-N′-(cyclopropanecarbonyl)-N′,1-dimethyl-N-((5-(1-methyl-1H-pyrazol-4-yl)pyridin-2-yl)methyl)-1H-pyrazolo[4,3-c]quinoline-8-carbohydrazide] | 100 to 1000 nM
CN(C(=O)C1CC1)N(Cc1ccc(C2CC2)cn1)C(=O)c1ccc2nc(N)c3cnn(C)c3c2c1 [Example 357, 4-amino-N′-(cyclopropanecarbonyl)-N-((5-cyclopropylpyridin-2-yl)methyl)-N′,1-dimethyl-1H-pyrazolo[4,3-c]quinoline-8-carbohydrazide] | < 100 nM
CN(C(=O)C1CC1(F)F)N(Cc1ccc(C(F)(F)F)cn1)C(=O)c1ccc2nc(N)c3cnn(C)c3c2c1 (centres unmarked) [Example 358, 4-amino-N′-(2,2-difluorocyclopropane-1-carbonyl)-N′,1-dimethyl-N-((5-(trifluoromethyl)pyridin-2-yl)methyl)-1H-pyrazolo[4,3-c]quinoline-8-carbohydrazide] | < 100 nM
CC(=O)N(C)N(Cc1c(F)cc(Cl)cc1F)C(=O)c1ccc2nc(N)c3cnn(C)c3c2c1 [Example 367, N′-acetyl-4-amino-N-(4-chloro-2,6-difluorobenzyl)-N′,1-dimethyl-1H-pyrazolo[4,3-c]quinoline-8-carbohydrazide] | < 100 nM
CC(=O)N(C)N(Cc1cc(F)c(C(F)(F)F)cc1F)C(=O)c1ccc2nc(N)c3cnn(C)c3c2c1 [Example 368, N′-acetyl-4-amino-N-(2,5-difluoro-4-(trifluoromethyl)benzyl)-N′, 1-dimethyl-1H-pyrazolo[4,3-c]quinoline-8-carbohydrazide] | < 100 nM
CN(C(=O)C1CC1)N(Cc1ccc(-c2ccc(C(F)(F)F)s2)cn1)C(=O)c1ccc2nc(N)c3cnn(C)c3c2c1 [Example 369, 4-amino-N′-(cyclopropanecarbonyl)-N′,1-dimethyl-N-((5-(5-(trifluoromethyl)thiophen-2-yl)pyridin-2-yl)methyl)-1H-pyrazolo[4,3-c]quinoline-8-carbohydrazide] | < 100 nM
CN(C(=O)C1CC1)N(Cc1ccc(C(F)F)cn1)C(=O)c1ccc2nc(N)c3cnn(C)c3c2c1 [Example 370, 4-amino-N′-(cyclopropanecarbonyl)-N-((5-(difluoromethyl)pyridin-2-yl)methyl)-N′,1-dimethyl-1H-pyrazolo[4,3-c]quinoline-8-carbohydrazide] | < 100 nM
CC(=O)N(C)N(Cc1ccc(C(F)(F)F)c(F)c1F)C(=O)c1ccc2nc(N)c3cnn(C)c3c2c1 [Example 371, N′-acetyl-4-amino-N-(2,3-difluoro-4-(trifluoromethyl)benzyl)-N′,1-dimethyl-1H-pyrazolo[4,3-c]quinoline-8-carbohydrazide] | < 100 nM
CC(=O)N(C)N(Cc1ccc(-c2cnn(C)c2)cc1F)C(=O)c1ccc2nc(N)c3cnn(C)c3c2c1 [Example 373, N′-acetyl-4-amino-N-[[2-fluoro-4-(1-methylpyrazol-4-yl)phenyl]methyl]-N′,1-dimethyl-pyrazolo[4,3-c]quinoline-8-carbohydrazide] | < 100 nM
CC(=O)N(C)N(Cc1ccc(-c2cnn(C(F)(F)F)c2)cc1Cl)C(=O)c1ccc2nc(N)c3cnn(C)c3c2c1 [Example 377, N′-acetyl-4-amino-N-[[2-chloro-4-[1-(trifluoromethyl)pyrazol-4-yl]phenyl]methyl]-N′,1-dimethyl-pyrazolo[4,3-c]quinoline-8-carbohydrazide] | < 100 nM
CC(=O)N(C)N(Cc1c(F)cc(-c2cnn(C(F)(F)F)c2)cc1F)C(=O)c1ccc2nc(N)c3cnn(C)c3c2c1 [Example 378, N′-acetyl-4-amino-N-[[2,6-difluoro-4-[1-(trifluoromethyl)pyrazol-4-yl]phenyl]methyl]-N′,1-dimethyl-pyrazolo[4,3-c]quinoline-8-carbohydrazide] | < 100 nM
CC(=O)N(C)N(Cc1c(F)cc(-c2cnn(C(F)F)c2)cc1F)C(=O)c1ccc2nc(N)c3cnn(C)c3c2c1 [Example 379, N′-acetyl-4-amino-N-[[4-[1-(difluoromethyl)pyrazol-4-yl]-2,6-difluoro-phenyl]methyl]-N′,1-dimethyl-pyrazolo[4,3-c]quinoline-8-carbohydrazide] | < 100 nM
CC(=O)N(C)N(Cc1c(F)cc(-c2cnn(C)c2)cc1F)C(=O)c1ccc2nc(N)c3cnn(C)c3c2c1 [Example 380, N′-acetyl-4-amino-N-[[2,6-difluoro-4-(1-methylpyrazol-4-yl)phenyl]methyl]-N′,1-dimethyl-pyrazolo[4,3-c]quinoline-8-carbohydrazide] | < 100 nM
CC(=O)N(C)N(Cc1c(F)cc(-c2cnn(C3CC3)c2)cc1F)C(=O)c1ccc2nc(N)c3cnn(C)c3c2c1 [Example 381, N′-acetyl-4-amino-N-[[4-(1-cyclopropylpyrazol-4-yl)-2,6-difluoro-phenyl]methyl]-N′,1-dimethyl-pyrazolo[4,3-c]quinoline-8-carbohydrazide] | < 100 nM
CN(C(=O)C1CC1)N(Cc1cc2cc(Cl)ccn2n1)C(=O)c1ccc2nc(N)c3cnn(C)c3c2c1 [Example 401] | < 100 nM
CN(C(=O)C1CC1)N(Cc1cc2cc(C(F)(F)F)ccn2n1)C(=O)c1ccc2nc(N)c3cnn(C)c3c2c1 [Example 404, 4-amino-N′-(cyclopropanecarbonyl)-N′,1-dimethyl-N-((5-(trifluoromethyl)pyrazolo[1,5-a]pyridin-2-yl)methyl)-1H-pyrazolo[4,3-c]quinoline-8-carbohydrazide] | < 100 nM
CC(=O)N(C)N(Cc1ccc(C#N)cc1C(F)(F)F)C(=O)c1ccc2nc(N)c3cnn(C)c3c2c1 [Example 407, N′-acetyl-4-amino-N-(4-cyano-2-(trifluoromethyl)benzyl)-N′,1-dimethyl-1H-pyrazolo[4,3-c]quinoline-8-carbohydrazide] | 100 to 1000 nM
CC(=O)N(C)N(Cc1ccc(C#N)cc1OC(F)F)C(=O)c1ccc2nc(N)c3cnn(C)c3c2c1 [Example 408, N′-acetyl-4-amino-N-(4-cyano-2-(difluoromethoxy)benzyl)-N′,1-dimethyl-1H-pyrazolo[4,3-c]quinoline-8-carbohydrazide] | < 100 nM
Cc1nc(C(F)(F)F)ccc1CN(C(=O)c1ccc2nc(N)c3cnn(C)c3c2c1)N(C)C(=O)C1CC1 [Example 409, 4-amino-N′-(cyclopropanecarbonyl)-N′,1-dimethyl-N-((2-methyl-6-(trifluoromethyl)pyridin-3-yl)methyl)-1H-pyrazolo[4,3-c]quinoline-8-carbohydrazide] | < 100 nM
CC(=O)N(C)N(Cc1ccc(C(F)(F)F)cc1C)C(=O)c1ccc2nc(N)c3cnn(C)c3c2c1 [Example 410, N′-acetyl-4-amino-N′,1-dimethyl-N-(2-methyl-4-(trifluoromethyl)benzyl)-1H-pyrazolo[4,3-c]quinoline-8-carbohydrazide] | < 100 nM
CC(=O)N(C)N(Cc1c(F)cc2c(ccn2C)c1F)C(=O)c1ccc2nc(N)c3cnn(C)c3c2c1 [Example 411, N′-acetyl-4-amino-N-((4,6-difluoro-1-methyl-1H-indol-5-yl)methyl)-N′,1-dimethyl-1H-pyrazolo[4,3-c]quinoline-8-carbohydrazide] | < 100 nM
CC(=O)N(C)N(Cc1ccc2c(c1)c1ccccc1n2C)C(=O)c1ccc2nc(N)c3cnn(C)c3c2c1 [Example 412, N′-acetyl-4-amino-N′,1-dimethyl-N-((9-methyl-9H-carbazol-3-yl)methyl)-1H-pyrazolo[4,3-c]quinoline-8-carbohydrazide] | 100 to 1000 nM
CC(=O)N(C)N(Cc1cc(F)c(F)c(F)c1)C(=O)c1ccc2nc(N)c3cnn(C)c3c2c1 [Example 414, N′-acetyl-4-amino-N′,1-dimethyl-N-(3,4,5-trifluorobenzyl)-1H-pyrazolo[4,3-c]quinoline-8-carbohydrazide] | 100 to 1000 nM
CC(=O)N(C)N(Cc1ccn(-c2ccc(C(F)(F)F)cc2)n1)C(=O)c1ccc2nc(N)c3cnn(C)c3c2c1 [Example 417, N′-acetyl-4-amino-N′,1-dimethyl-N-((1-(4-(trifluoromethyl)phenyl)-1H-pyrazol-3-yl)methyl)-1H-pyrazolo[4,3-c]quinoline-8-carbohydrazide] | < 100 nM

Source: US20240254118A1, “PRMT5 INHIBITORS AND USES THEREOF” (Gilead Sciences, Inc., priority 2022, published 2024)
